This is an account of results in US20150258168A1, “MODULATION OF PODOPLANIN MEDIATED PLATELET ACTIVATION” (OKLAHOMA MEDICAL RESEARCH FOUNDATION, priority 2012, published 2015).

The subject of this test is NE-Pdpn^−/− mice. Put plainly: tMCAO-induced ischemia/reperfusion, brain bleeding and Evans blue leakage. Type of test: in vivo. To be noted: NE-Pdpn^−/− mice after tMCAO (1.5 hr ischemia and 24 hr reperfusion), 100 mg/kg body weight, i.p., n=2/group, pilot experiment. The method, then:
FIG. 12. […] Gross images of cronal sections of NE− Pdpn^−/− brains. The mice (6-wks-old) were treated either with SEW2871 or DMSO (solvent of SEW2871) immediately after reperfusion. 24 hrs after the reperfusion, mice were intravenously injected with Evans blue, sacrificed and immediately perfused with saline and 4% PFA. Arrows show bleeding. Asterisks show leakage of Evans blue. R, right side (tMCAO side).
To determine the role of PDPN in astrocytes in protecting vascular integrity in the adult brain after injury, the inventor has have established a transient middle cerebral artery occlusion (tMCAO)-induced ischemia/reperfusion model that is widely accepted as a model for secondary hemorrhage in human patients with ischemic stroke (Fan et al., 2010). […] In addition, he will include Magnetic Resonance Imaging (MRI) to detect early hemorrhage, monitor its progress, and quantify bleeding volume (every 10 h). […]
The S1P receptor S1P1 is highly expressed on vascular endothelial cells (Kono et al., 2004). […] Cerebral vascular permeability/edema will be detected by intravenous injection of Evans blue and the wet/dry ratio of the brains. Vascular integrity will be analyzed by confocal imaging and/or TEM as described in C1.3.3. […]

“Also recorded” adds a separate entry of the source.

In the case of `FC(F)(F)c1cccc(-c2noc(-c3cc(-c4ccccc4)c(C(F)(F)F)s3)n2)c1` [SEW2871], the vascular leakage result (Evans blue) is listed as “ameliorated”. The brain bleeding result (100 mg/kg) is given as “ameliorated; also recorded: ameliorates brain bleeding”.
